Source: patent publication EP1501797B1, “3-(SUBSTITUTED AMINO)-1H-INDOLE-2-CARBOXYLIC ACID ESTER AND 3-(SUBSTITUTED AMINO)-BENZO[B]THIOPHENE-2-CARBOXYLIC ACID ESTER DERIVATIVES AS INTERLEUKIN-4 GENE EXPRESSION INHIBITORS” (Aventis Pharmaceuticals Inc., priority 2002, dated 2003)
pIC50: −log10 of the molar value.

What was measured:
[1] = in vitro; conditions: mouse, swiss 3t3 fibroblasts
Method: A third assay utilized in the present invention involves an in vitro cytotoxicity assay. This assay is used to further characterize the compounds in order to assess toxic activities of compounds on contact inhibited, non-dividing 3T3 fibroblasts. Other toxicity assays may be used.
Contact inhibited Swiss 3T3 fibroblasts are purchased from ATCC. The cells are maintained in 1640 RPMI supplemented with 10% fetal bovine serum (Gibco).
On day of assay, cells are detached from flasks by trypsinization, washed in medium and counted. 100 microliters of 2.5 x 10^4 cells per well are plated into Falcon brand 96 well tissue culture plates and cells incubated at 37°C in presence of 5% CO2 for 2 days or until confluent.
[…] All compound dilutions are assayed in triplicate. […] Cells are returned to the incubator for 2 days.
After 2 day incubation, the 3T3 cells are assayed for viability using an MTS Assay Kit (Promega). Media is added to blank wells for background calculations. After 2 hours incubation in kit reagent, the optical density at 490 nm for each compound and control is determined by plate reader.
Results are expressed as percent cytotoxicity, i.e., (mean OD of compound wells - background OD)/ (mean OD of controls - background).
Note that starting concentration of CsA was 1 µM. […]

[2] = tested on: IL-4; test: Human primary Th2 cells, anti-CD3/anti-CD28 activated, IL-4 ELISA; type: cell-based; conditions: human primary Th2 cells, anti-CD3 and anti-CD28 (Table 5)
Method: (§1) Briefly, CD4^+CD45RA^+ T cells, isolated from donor peripheral blood mononuclear cells of healthy donors, are educated in the presence of anti-CD3/CD28 antibodies and various growth factors to obtain either a Thl-like or Th2-like phenotypes as determined by the known cytokine profiles of these two cell types.
(§2) Peripheral blood mononuclear cells (PBMC) are prepared from human blood by Ficoll-Hypacque (Pharmacia). The cells are washed two times in Hanks balanced salt solution (HBSS) and counted.
(§3) Naive T cells (CD4^+/CD45RA ) are prepared by negative selection method using following antibodies and Dynabeads: anti-CD8, anti-HLA-DR, (where HLA means human leucocyte antigen) anti-CD14, anti-CD16, anti-CD19, anti-CD45RO antibodies (all from R&D Systems, 1-2 µg/ml) are added to the cells, and the cells are kept on ice for 30 min. The cells are washed two times in HBSS, and goat anti- mouse Ig-beads, (bead:target ratio, 5:1) are added. The cells and beads are slowly rotated at 4°C for 20 min. (following the protocol supplied from Dynal). The supernatant is removed and fresh goat anti-mouse Ig-beads are added to the supernatant, which is slowly rotated at 4°C for 20 min. The cells are counted and phenotypically characterized by flow cytometric analysis.
(§4) CD4^+/CD45RA^+ cells at a density of 10^6/ml in RPMI, is prepared and added to RPMI medium containing 10% Hyclone serum/ glutamine and 1-2 µg/ml anti-CD28 Ab. The cells are split in two aliquots. For Th1 cells: anti-IL-4 Ab (1-2 µg/ml), IFN-γ (1 µg/ml, or 5000 units/ml) are added to the wells. For Th2 cells: IL-4 (100-200 ng/ml), anti-IFN-γ neutralizing Ab (1-2 µg/ml), anti-IL-12 neutralizing Ab (1-2 µg/ml) are added into the wells. […] The cells are transferred to fresh wells and grown in 200 units/ml IL-2 for 2 weeks by feeding them every other day with IL-2 containing medium and splitting the cultures 1:2 or 1:3 as needed. The degree of polarization is determined by intracellular staining of cells with anti-IFN-γ and anti-IL-4 antibodies from Pharmingen, and using flow cytometry from Becton Dickinson (BD), according to manufacturers description. The cells are stimulated with PHA and alloantigens at day 14 and 28 as described below. Eight days after the second allostimulation the cells can be used for compound screening or frozen for future use. For compound testing, large quantities of Th1 and Th2 cells derived from a given donor (NYTh1 and NYTh2) were expanded and frozen as aliquots in liquid nitrogen. The cells are thawed and cultured as and when needed. The thawed cells are stimulated with alloantigen/PHA combination. The cells are used for compound screening after 8-10 days in culture.
(§5) Re-stimulation by allogeneic cells: Human PBMCs, to be used as alloantigens, are isolated from freshly drawn blood by Ficoll separation. […] Cells are counted and diluted to a final concentration of 2 x 10^6/ml in medium containing 10 µg/ml PHA and 200 units/ml IL-2.
(§6) Ninetysix well Falcon tissue culture plates (Fisher Scientific) are coated with 100 microliters per well of 10 µg/ml anti-CD3 (PharMingen) antibody in phosphate buffered saline (PBS) and stored at 4°C one day before the experiment.
(§7) On the day of assay, anti-CD3 antibody coated plates are washed with PBS once to remove all soluble anti-CD3 antibody. […] All compounds and controls are assayed in triplicates.

[3] = tested on: IL-13; test: Human primary Th2 cells, anti-CD3/anti-CD28 activated, IL-13 ELISA; type: cell-based; conditions: human primary Th2 cells, anti-CD3 and anti-CD28 (Table 5)
Method: as §1, §2, §3, §4, §5, §6, §7

[4] = tested on: IL-5; test: Human primary Th2 cells, anti-CD3/anti-CD28 activated, IL-5 ELISA; type: cell-based; conditions: human primary Th2 cells, anti-CD3 and anti-CD28 (Table 5)
Method: as §1, §2, §3, §4, §5, §6, §7

[5] = tested on: Human Th2 cells; test: Human primary Th2 cells, proliferation (viability, MTS assay); type: cell-based; conditions: human primary Th2 cells, anti-CD3 and anti-CD28 (Table 5); read-out: Prolif. IC50
Method: as §1, §2, §3, §4, §5, §6, §7

[6] = tested on: IFN-γ; test: Human primary Th2 cells, anti-CD3/anti-CD28 activated, IFN-γ ELISA; type: cell-based; conditions: human primary Th2 cells, anti-CD3 and anti-CD28 (Table 5)
Method: as §1, §2, §3, §4, §5, §6, §7

| SMILES | viability at 48 h, 0.001 µM [1] | viability at 48 h, 0.003 µM [1] | viability at 48 h, 0.01 µM [1] | viability at 48 h, 0.03 µM [1] | viability at 48 h, 0.1 µM [1] | viability at 48 h, 3 µM [1] | viability at 48 h, 10 µM [1] | pIC50 [2] | pIC50 [3] | pIC50 [4] | pIC50 [5] | pIC50 [6] |
| --- | --- | --- | --- | --- | --- | --- | --- | --- | --- | --- | --- | --- |
| C[C@@H]1C[C@H]2[C@@H]3CCC4=CC(=O)C=C[C@]4(C)[C@@]3(F)[C@@H](O)C[C@]2(C)[C@@]1(O)C(=O)CO [Dexamethasone] | 100% | 77.9% | 71.6% | 67.8% | 64.2% | 60.7% | 60.5% | – | – | – | – | – |
| CCOC(=O)c1[nH]c2ccccc2c1Nc1ccncc1 [Example 11, 3-(4-pyridinylamino)-1H-indole-2-carboxylic acid, ethyl ester] | – | – | – | – | – | – | – | < 5.00 | < 5.00 | < 5.00 | < 5.00 | < 5.00 |
| CN(C)CCOC(=O)c1[nH]c2cc(Cl)ccc2c1NC(=O)c1ccccc1 [Example 79, 3-((Benzoyl)amino)-6-chloro-1H-indole-2-carboxylic acid 2-dimethylamino-ethyl ester] | – | – | – | – | – | – | – | 5.30 | < 5.00 | < 5.00 | < 5.00 | < 5.00 |
| CCOC(=O)c1[nH]c2cc(Cl)cc(Cl)c2c1N(Cc1ccccc1)C(=O)c1ccccc1 [Example 89, 3-((Benzoyl)benzylamino)-4,6-dichloro-1H-indole-2-carboxylic acid ethyl ester] | – | – | – | – | – | – | – | 5.60 | < 5.00 | 5.10 | 5.40 | < 5.00 |
| CCOC(=O)c1[nH]c2cc(Cl)cc(Cl)c2c1NS(=O)(=O)c1ccccc1 [Example 90, 3-((Phenylsulfonyl)amino)-4,6-dichloro-1H-indole-2-carboxylic acid ethyl ester] | – | – | – | – | – | – | – | 6.00 | < 5.00 | < 5.00 | < 5.00 | < 5.00 |
| CN(Cc1cnc2nc(N)nc(N)c2n1)c1ccc(C(=O)N[C@@H](CCC(=O)O)C(=O)O)cc1 [Methotrexate] | 113% | 105% | 103% | 100% | 98.9% | 93.8% | 92.4% | – | – | – | – | – |
| CCOC(=O)c1c(Nc2ccncc2)c2ccccc2n1C [Reference Example 24A, 1-Methyl-3-(4-pyridinylamino)-1H-indole-2-carboxylic ethyl ester] | – | – | – | – | – | – | – | 5.70 | < 5.00 | < 5.00 | < 5.00 | < 5.00 |
| CN(C(=O)CCc1ccccc1)c1c(C(=O)O)[nH]c2cc(Cl)ccc12 [Reference Example 76, 3-((3-Phenylpropanoyl)methylamino)-1H-6-chloro-indole-2-carboxylic acid] | – | – | – | – | – | – | – | 5.40 | < 5.00 | < 5.00 | < 5.00 | < 5.00 |
| CN(C(=O)c1ccccc1)c1c(C(=O)O)[nH]c2cc(Cl)cc(Cl)c12 [Reference Example 77, 3-((Benzoyl)methylamino)-4,6-dichloro-1H-indole-2-carboxylic acid] | – | – | – | – | – | – | – | 5.44 | < 5.00 | < 5.00 | < 5.00 | < 5.00 |
| O=C(Nc1c(C(=O)O)[nH]c2cc(Cl)ccc12)c1ccccc1 [Reference Example 78, 3-((Benzoyl)amino)-6-chloro-1H-indole-2-carboxylic acid] | – | – | – | – | – | – | – | 6.52 | < 5.00 | < 5.00 | < 5.00 | < 5.00 |
| CN(C(=O)c1ccc(Cl)cc1)c1c(C(=O)O)[nH]c2cc(Cl)cc(Cl)c12 [Reference Example 80, 3-((4-chlorobenzoyl)methylamino)-4,6-dichloro-1H-indole-2-carboxylic acid] | – | – | – | – | – | – | – | 5.22 | < 5.00 | < 5.00 | < 5.00 | < 5.00 |
| O=C(O)c1[nH]c2cc(Cl)cc(Cl)c2c1N(Cc1ccccc1)C(=O)c1ccccc1 [Reference Example 81, 3-((Benzoyl)benzylamino)-4,6-dichloro-1H-indole-2-carboxylic acid] | – | – | – | – | – | – | – | 5.22 | < 5.00 | 5.15 | < 5.00 | 5.02 |
| CN(C(=O)c1ccccc1)c1c(C(=O)O)[nH]c2cc(Cl)c(Cl)cc12 [Reference Example 84, 3-((Benzoyl)methylamino)-5,6-dichloro-1H-indole-2-carboxylic acid] | – | – | – | – | – | – | – | 6.00 | < 5.00 | < 5.00 | < 5.00 | < 5.00 |
| CCN(C(=O)c1ccccc1)c1c(C(=O)O)[nH]c2cc(Cl)cc(Cl)c12 [Reference Example 85, 3-((Benzoyl)ethlamino)-4,6-dichloro-1H-indole-2-carboxylic acid] | – | – | – | – | – | – | – | 6.05 | < 5.00 | < 5.00 | < 5.00 | < 5.00 |
| CN(C(=O)c1ccccc1)c1c(C(=O)O)[nH]c2cc(F)ccc12 [Reference Example 86, 3-((Benzoyl)methylamino)-6-fluoro-1H-indole-2-carboxylic acid] | – | – | – | – | – | – | – | 6.00 | < 5.00 | < 5.00 | < 5.00 | < 5.00 |
| O=C(Nc1c(C(=O)O)[nH]c2cc(Cl)cc(Cl)c12)c1ccccc1Cc1ccccc1 [Reference Example 87, 3-((2-Benzylbenzoyl)amino)-4,6-dichloro-1H-indole-2-carboxylic acid] | – | – | – | – | – | – | – | 6.22 | < 5.00 | 5.70 | < 5.00 | < 5.00 |
| CN(C(=O)c1cccc(F)c1)c1c(C(=O)O)[nH]c2cc(Cl)cc(Cl)c12 [Reference Example 88, 3-((3-Fluorobenzoyl)methylamino)-4,6-dichloro-1H-indole-2-carboxylic acid] | – | – | – | – | – | – | – | 5.60 | < 5.00 | < 5.00 | < 5.00 | < 5.00 |
| O=C(O)c1[nH]c2cc(Cl)cc(Cl)c2c1NS(=O)(=O)c1ccccc1 [Reference Example 91, 3-((Phenylsulfonyl)amino)-4,6-dichloro-1H-indole-2-carboxylic acid] | – | – | – | – | – | – | – | 6.00 | < 5.00 | < 5.00 | < 5.00 | < 5.00 |
| CN(c1c(C(=O)O)[nH]c2cc(Cl)cc(Cl)c12)S(=O)(=O)c1ccccc1 [Reference Example 92, 3-((Phenylsulfonyl)methylamino)-4,6-dichloro-1H-indole-2-carboxylic acid] | – | – | – | – | – | – | – | 6.35 | < 5.00 | < 5.00 | < 5.00 | < 5.00 |
